Results reported in ChEMBL document CHEMBL1144691, “Antiproliferative cassane diterpenoids of Cordyla madagascariensis ssp. madagascariensis from the Madagascar rainforest” (J Nat Prod, 2008).

System: A2780
Assay: Antiproliferative activity against human A2780 cells
Format: functional, cell-based

Row | IC50 [µM] | SMILES
1 | 10 | CC(=O)OC[C@@]1(CO)CCC[C@]2(C)[C@H]3Cc4occc4[C@H](C)[C@@H]3C[C@@H](OC(C)=O)[C@@H]12 [CORDYLANE A]
2 | 36 | CC(=O)OC[C@]1(CO)CCC[C@]2(C)[C@H]3Cc4occc4[C@H](C)[C@@H]3C[C@@H](OC(C)=O)[C@@H]12 [CORDYLANE B]
3 | > 60 | C[C@H]1c2ccoc2C[C@H]2[C@H]1CC[C@H]1[C@@](CO)(C(=O)O)CCC[C@]21C [CORDYLANE C]
4 | > 60 | C=C1c2ccoc2C[C@H]2[C@H]1CC[C@H]1[C@@](CO)(C(=O)O)CCC[C@]21C [CORDYLANE D]
